Among the data in US9000176B2, “Pyrazole derivatives, preparation method thereof, and composition for prevention and treatment of osteoporosis containing same” (Ewha University—Industry Collaboration Foundation, priority 2009, dated 2015) are EC50 values, retold here.

The subject of this experiment is generation of reactive oxygen species in the murine kidney membrane. As to the kind of experiment: Lucigenin-based assay of reactive oxygen species generation in isolated kidney membrane. It counts as biochemical, rat (Rattus norvegicus). The note with it: 37° C. for 10 minutes, luminescence, compound 40, 10, 2.5, 0.625, 0 μM, read-out: EC50 (inhibition of generation of reactive oxygen species). Here is the method:
A kidney was isolated from a rat (Rattus norvegicus) and washed with phosphate buffered saline (PBS). The tissue was soaked in 20 mL of PBS buffer containing a protease inhibitor (Aprotinin 1 μg/mL-USB 11388, Leupeptin 1 μg/mL-USB-18413), finely disrupted using a mixer, and then transferred to a 50 mL conical tube (SPL 50050), followed by centrifugation at 10000 g for 10 minutes (MF-600 plus, Hanil) to sediment the undisrupted tissue. The supernatant was separated and collected in a fresh tube. The tube was placed in ice and subjected to sonication about 4 times each cycle for 30 seconds until the supernatant became clear (Branson Digital Sonifier, Model CE Converter 102C). The supernatant was transferred to a high-speed centrifugation tube (Beckman 331372) and then centrifuged at 100000 g for 1 hour (Optima™ L-90 K Preparative Ultracentrifuge, SW41Ti rotor, Beckman). After the supernatant was discarded, the remaining pellet was washed once with cold PBS and dissolved in 500 μL of cold PBS containing a protease inhibitor to obtain a murine kidney membrane.
Reactive oxygen species generated in the thus-obtained kidney membrane was analyzed by a lucigenin-based assay.
Specifically, each of the compounds synthesized in Examples of the present invention (40 μM, 10 μM, 2.5 μM, 0.625 μM, and 0 μM) was placed in a luminescence assay microplate, and the isolated kidney membrane and lucigenin were sequentially added thereto, followed by incubation at 37° C. for 10 minutes. Then, the intensity of luminescence was measured in a luminometer (MicroLumatPlus LB96V Microplate Luminometer, Berthold) to assay the generation of reactive oxygen species in the murine kidney membrane, followed by calculating an EC50 value of the inventive compounds.
For `CCCc1c(-c2ccccc2)nn(-c2ccccn2)c1O` [Compound 78, 3-phenyl-4-propyl-1-(pyridin-2-yl)-1H-pyrazol-5-ol], the EC50 is 10000 nM.

Turning to `CC(C)(C)OC(=O)Oc1cc(-c2ccc(-c3ccccc3)cc2)nn1-c1ncccn1` [Compound 48, 3-(biphenyl-4-yl)-1-(pyrimidin-2-yl)-1H-pyrazol-5-yl tert-butyl carbonate], the EC50 was determined as 1200 nM.

Take `Oc1cc(-c2ccc(-c3ccc4c(c3)OCO4)cc2)nn1-c1ccccn1` [Compound 55, 3-(4-(benzo[d][1,3]-dioxol-5-yl)phenyl)-1-(pyridin-2-yl)-1H-pyrazol-5-ol]: the EC50 came to 500 nM.

For the compound `Oc1cc(-c2cccc(-c3cccc(-c4ccccc4)c3)c2)nn1-c1ccccn1` [Compound 67, 3-(3′-phenylbiphenyl-3-yl)-1-(pyridin-2-yl)-1H-pyrazol-5-ol], the EC50 was 400 nM.

For the compound `CC(=O)Oc1cc(-c2ccc(Br)cc2)nn1-c1ccccn1` [Compound 26, 3-(4-bromophenyl)-1-(pyridin-2-yl)-1H-pyrazol-5-yl acetate], the EC50 came to 1300 nM.

For `CC(C)[Si](Oc1cc(-c2ccc(-c3ccc(Br)cc3)cc2)nn1-c1ccccn1)(C(C)C)C(C)C` [Compound 51, 2-(3-(4′-bromobiphenyl-4-yl)-5-(triisopropylsilyloxy)-1H-pyrazol-1-yl)pyridine], the EC50 was found to be 400 nM.

Take `Oc1cc(-c2cccc(-c3ccccc3Oc3ccccc3)c2)nn1-c1ccccn1` [Compound 65, 3-(2′-phenoxybiphenyl-3-yl)-1-(pyridin-2-yl)-1H-pyrazol-5-ol]: the EC50 amounted to 625 nM.

As for `Oc1cc(-c2ccc(-c3ccccc3Oc3ccccc3)cc2)nn1-c1ccccn1` [Compound 74, 3-(2′-phenoxybiphenyl-4-yl)-1-(pyridin-2-yl)-1H-pyrazol-5-ol], the EC50 turned out to be 400 nM.

With `Oc1cc(-c2ccc(Br)cc2)nn1-c1ccccn1` [Compound 15, 3-(4-bromophenyl)-1-(pyridin-2-yl)-1H-pyrazol-5-ol], the EC50 came to 1200 nM.

As to `CC(C)[Si](Oc1cc(-c2ccc(I)cc2)nn1-c1ccccn1)(C(C)C)C(C)C` [Compound 20, 2-(3-(4-iodophenyl)-5-(triisoropylsilyloxy)-1H-pyrazol-1-yl)pyridine], the EC50 was found to be 1500 nM.

Consider `Oc1cc(-c2cccc(-c3ccccc3)c2)nn1-c1ccccn1` [Compound 61], for which the EC50 was determined as 400 nM.

In the case of `Oc1cc(-c2ccc(I)cc2)nn1-c1ncccn1` [Compound 19, 3-(4-iodophenyl)-1-(pyrimidin-2-yl)-1H-pyrazol-5-ol], the EC50 came out at 800 nM.

Regarding `Oc1cc(-c2ccc(-c3ccc(Br)cc3)cc2)nn1-c1ccccn1` [Compound 72, 3-(4′-bromobiphenyl-4-yl)-1-(pyridin-2-yl)-1H-pyrazol-5-ol], the EC50 came to 2500 nM.

Consider `Oc1c(Cc2ccccc2)c(-c2ccccc2)nn1-c1ccccn1` [Compound 79, 4-benzyl-3-phenyl-1-(pyridin-2-yl)-1H-pyrazol-5-ol], for which the EC50 was found to be 3000 nM.

On to `Oc1cc(-c2ccccc2-c2ccc3c(c2)OCO3)nn1-c1ccccn1` [Compound 59, 3-(2-(benzo[d][1,3]dioxol-5-yl)phenyl)-1-(pyridin-2-yl)-1H-pyrazol-5-ol], for which the EC50 is 1400 nM.

On to `Oc1cc(-c2ccc(-c3ccccc3)cc2)nn1-c1ncccn1` [Compound 75, 3-(biphenyl-4-yl)-1-(pyrimidin-2-yl)-1H-pyrazol-5-ol], for which the EC50 turned out to be 600 nM.

`c1ccc(B(Oc2cc(-c3ccc(-c4ccccc4)cc3)nn2-c2ccccn2)c2ccccc2)cc1` [Compound 52, 2-(3-(biphenyl-4-yl)-5-(diphenylboryloxy)-1H-pyrazol-1-yl)pyridine]: the EC50 turned out to be 500 nM.

Regarding `Oc1cc(-c2ccccc2I)nn1-c1ccccn1` [Compound 16, 3-(2-iodophenyl)-1-(pyridin-2-yl)-1H-pyrazol-5-ol], the EC50 turned out to be 2500 nM.

As to `Oc1cc(-c2ccc(-c3ccccc3)cc2)nn1-c1ccccn1` [Compound 54, 3-(biphenyl-4-yl)-1-(pyridin-2-yl)-1H-pyrazol-5-ol], the EC50 amounted to 400 nM.

As for `Oc1cc(-c2ccc(I)cc2)nn1-c1ccccn1` [Compound 18, 3-(4-iodophenyl)-1-(pyridin-2-yl)-1H-pyrazol-5-ol], the EC50 came out at 450 nM.

As for `Oc1cc(-c2cccc(I)c2)nn1-c1ccccn1` [Compound 17, 3-(3-iodophenyl)-1-(pyridin-2-yl)-1H-pyrazol-5-ol], the EC50 stood at 700 nM.
